According to patent US20230134760A1, “CAR AND NRF2 DUAL ACTIVATOR AGENTS FOR CYCLOPHOSPHAMIDE-BASED AND DOXORUBICIN-BASED TREATMENTS OF CANCER” (priority 2020, published 2023):

Legend:
MDA-MB-231 cells = experiment: Oxidative stress imaging (DFDA) in MDA-MB-231 cells; assay type: cell-based; conditions: MDA-MB-231, DL7076 5 μM + DOX
H9c2 cells = experiment: Phosphorylated H2AX imaging, H9c2 cells from multi-organ co-culture; assay type: cell-based, rat; conditions: CPA/DOX + DL7076
Description: Additionally, HPH were cultured in collagen-coated 6-well plates and pre-treated as described in the previous co-culture system. BT549 and H9c2 cells were plated on similar modified coverslips 0.8×10^5 cells and allowed to attach for 24 hours during hepatocyte pre-treatment. […] Following pre-treatment, BT549 coverslips were inserted adjacent to H9c2 coverslips over the sandwich cultured HPH as depicted in FIG. 43a. […] Both BT549 and H9c2 cells were harvested at indicated time points and assess for viability, apoptosis, and DNA damage as detailed further. […] Cells were fixed using 4% paraformaldehyde in PBS for 15 minutes followed by permeabilization with 0.5% Triton-X 100 in PBS for an additional 15 minutes at room temperature. Prior to blocking with 5% Bovine Serum Albumin (BSA), 3 washes with PBS were done to remove excess Triton-X. Primary antibody to mouse anti-phospho-H2AX ([…], clone JBW301, Millipore, 1:500 dilution) was prepared in PBS with 3% BSA and 0.3% Triton-X 100 and incubated overnight. […] The coverslips were visualized at 10× magnification using fluorescence microscopy (Nikon Eclipse Ti) and the amount of phosphorylation was quantified as mean intensity using brightspot detection of quadruplet images of the whole well and normalized to the vehicle control (0.1% DMSO).

hCAR or Nrf2 = experiment: all curve and EC50 curve of selected compounds (FIG. 22-35); assay type: cell-based; parameters: key to Emax: fold activation; firefly luciferase normalized to Renilla; conditions: figure legend values
Description: Cell lysates were assayed for luciferase activity and normalized against the activity of the Renilla luciferase using a Dual-Luciferase Kit (Promega). […] Compound 2, DL7076, was selected for further evaluation based on its effects in activating hCAR and Nrf2 using the HepG2 cell reporter assay (FIGS. 37a-37c).

HO-1 [1] = experiment: HO-1 expression in MDA-MB-231 cells; assay type: cell-based; conditions: MDA-MB-231, 10 μM, 24 hours
Description: (§1) Immortalized triple negative breast cancer cell lines MDA-MB-231 and BT549 were obtained from ATCC (Rockville, Md.). Additionally, the h9c2 cell line was purchased from ATCC (Rockville, Md.). […] Human iPSC-derived cardiomyocytes were maintained in Mtesr plus and supplemented according to protocol. These cells were treated for 2 hrs or an overnight as indicated. Following a 2 hr pretreatment, cells were co-treated with DOX at indicated concentrations for 6 or 22 hours. Following the overnight treatments, RNA or protein was isolated. HPH were seeded in collagen-coated 24 well plates and pretreated for 24 hrs. BT549 were seeded on inverted coverslips. After a 24 hr pretreatment, hepatocytes were co-administered as indicated and coverslips were inserted. The cell lines were used for less than 60 passages. After 24 h treatment, HPH, BT549, MDA-MB-231, and H9c2 cells were washed and a phenol-chloroform extraction was used to isolate total RNA with the TRIzol reagent (ThermoFisher, Rockford, Ill.). Reverse transcription was performed on extracted RNA (1 μg) to produce cDNA using the High Capacity cDNA Archive kit according to manufacturer's instructions (Applied Biosystems, Foster, Calif.). […] Quantification of expression changes was done by the 2^ΔΔCt method, normalizing to GAPDH as the housekeeping gene and determining the fold change compared to control values (n=3). […]

[2] = system: iPSC-derived cardiomyocytes; experiment: Cell viability, DOX-induced cytotoxicity in iPSC-derived cardiomyocytes; assay type: cell-based, human; conditions: co-administration with DOX
Description: (§2) Immortalized triple negative breast cancer cell lines MDA-MB-231 and BT549 were obtained from ATCC (Rockville, Md.). Additionally, the h9c2 cell line was purchased from ATCC (Rockville, Md.). […] Human iPSC-derived cardiomyocytes were maintained in Mtesr plus and supplemented according to protocol. These cells were treated for 2 hrs or an overnight as indicated. Following a 2 hr pretreatment, cells were co-treated with DOX at indicated concentrations for 6 or 22 hours. Following the overnight treatments, RNA or protein was isolated. HPH were seeded in collagen-coated 24 well plates and pretreated for 24 hrs. BT549 were seeded on inverted coverslips. After a 24 hr pretreatment, hepatocytes were co-administered as indicated and coverslips were inserted. The cell lines were used for less than 60 passages. H9c2 cells were seeded 0.8×10^5 in 24-well plates. […] A Cell Counting Kit-8 (Enzo) assay was carried out. Cell viability was described as a percent of vehicle control (0.1% DMSO).

HO-1 [3] = experiment: HO-1 expression in BT549 cells; assay type: cell-based; conditions: BT549, 10 μM, 24 hours
Description: as §1

BT549 cells = experiment: Cell viability assay, DOX-induced toxicity in BT549 cells; assay type: cell-based; conditions: BT549, DOX 2.5 μM
Description: as §2

## O=C(NCCN=C=S)c1c(-c2ccc3ccccc3c2)nc2sccn12 [DL7076, N-(2-Isothiocyanatoethyl)-6-(naphthalen-2-yl)imidazo[2,1-b]thiazole-5-carboxamide]
MDA-MB-231 cells
  ROS with cotreatment: significant ROS without reduction
H9c2 cells
  H2AX phosphorylation (DNA damage): a measured decrease in histone H2A phosphorylation
hCAR or Nrf2
  Emax: 2.5
hCAR or Nrf2; read-out: EC50
  EC50: 3.9 µM
HO-1 [1]
  HO-1 induction: 1.4 fold
[2]
  reversal of DOX-induced cytotoxicity: efficiently reversed by co-administration of DL7076
HO-1 [3]
  HO-1 induction: 1.5 fold
BT549 cells
  reversal of DOX-induced toxicity (viability): this efficient reversal was not shown
